Non-standard residues stand in square brackets, D forms with d. Residues, ends and D or L forms follow the SMILES beside them. *: point of attachment. Nle = CCCC[C@H](N)C(=O)O; Cbz = O=C(OCc1ccccc1)*; CH2F = FC*
Test system: retinal ganglion cells
Assay: Glutamic acid-induced apoptosis of cultured retinal ganglion cells (Hoechst 33342 or calcein AM/propidium iodide staining)
Format: cell-based, rat
Settings: for apoptosis of retinal cells induced by glutamic acid (apoptosis-like cells): Hoechst 33342
Protocol: The primary culture of the retinal glia cells was carried out using two-day-old Sprague Dawley (SD) baby rats in accordance with a somewhat modified method (Hayashi et al., J. Biol. Chem. 2009) of the method of Barres et al. (Barres, et al., 1988). The isolated retinal glia cells (RGC) were suspended in a base culture medium of a RGC medium (1 mM glutamine, 5 μg/mL insulin, 60 μg/mL N-acetylcysteine, 62 ng/mL progesterone, 16 μg/mL putrescine, 40 ng/mL sodium selenite, 0.1 mg/mL bovine serum albumin, 40 ng/mL triiodothyronine, 0.1 mg/mL transferrin, 1 mM sodium pyruvate, 2% B27 supplement (Invitrogen, Carlsbad, Calif.), 10 μM forskolin (Sigma, St. Louis, Mo.), 50 ng/mL brain-derived neurotrophic factor (BDNF; PeproTech, Rocky Hill, N.J.), 50 ng/mL ciliary neurotrophic factor (CNTF; Peprotech), and 50 ng/mL basic fibroblast growth factor (bFGF; PeproTech). A 96-well plate was coated with poly-d-lysine (Sigma) and laminin (Sigma), and RGC was placed at the rate of 5,000 cells per well for the 96-well place, 5,000 cells per each culture insert for microdish, or 15,000 cells per dish for compartmentalized culture, followed by incubating for at least 10 days before experimentation.
In the figure, Cant represents a non-treated group, Glu represents a group with 300 μM glutamic acid added, and +glial LP represents a group with 300 μM glutamate+glia-cell-derived lipoprotein containing apolipoprotein E added. Glial LP was added in the concentration of 1 μg cholesterol/mL. After treatment, the rate of apoptosis-like cells was computed by observing the aggregation of the nuclei (a: nuclear staining with Hoechst 33342) or the sustained impermeability of esterase activity/membrane (b: calcein AM/Propidium Iodide staining) in 24 hours.
The induction and detection of apoptosis in RGC were performed in the manner as described below. Specifically, RGC was washed twice with Hanks' balanced salt solution (HBSS) containing 2.4 mM CaCl2 and 20 mM HEPES, but not containing magnesium, and incubated at 37° C. for 2 hours in a medium prepared by adding 300 μM glutamate and 10 μM glycine to the above Hanks' balanced salt solution. After treatment with glutamate, RGC was incubated at 37° C. for 22 hours in a RGC culture medium containing no forskolin, BDNF, CNTF and bFGF. In order to detect apoptosis, RGC was stained with 1 μg/mL of Hoechst 33342 (346-07951, Dojindo, Kumamoto, Japan) or 1 μg/mL of calcein-AM/propidium iodide (341-07381, Dojindo). The fluorescence images were observed by Olympus IX71 microscope. The fragmented or aggregated nuclei stained with the above Hoechst reagent were counted as apoptotic nuclei, and round and smooth nuclei were counted as sound nuclei. As the sound nuclei were not stained with propidium iodide, the nuclei stained with propidium iodide were counted as apoptotic nuclei. More than 300 nuclei were counted in each group.
The apoptosis of RGC was measured in the following manner. The RGC subjected to the primary incubated was incubated two times at 37° C. for 15 minutes using Hanks' Balanced Salt Solution (HBSS) containing 2.4 mM CaCl2 and 20 mM 4-(2-hydroxyethyl)-pyperazine-1-ethanesulfonic acid (HEPES) but containing no magnesium and then washed. […], the magnesium was removed from the washing solution. Thereafter, the RGC was treated or not treated with […] (a co-activating agent for the NMDA receptor) in HBSS containing 2.4 mM CaCl2 and 20 mM HEPES (without magnesium) and then incubated at 37° C. for 2 hours. A control (HBSS containing 2.4 mM CaCl2 and 20 mM HEPES (without containing magnesium)) or the RGC treated or not treated with glutamic acid was incubated at 37° C. for 22 hours in the same medium as used for the RGC (without forskolin, brain-derived neurotrophic factor, ciliary neurotrophic factor and basic fibroblast growth factor). […]

`CCCC[C@@H](C=O)NC(=O)[C@H](CC(C)C)NC(=O)[C@H](CC(C)C)NC(C)=O` [ALLN, reference compound] (Ac-Leu-Leu-[Nle]-aldehyde) was tested, and the “apoptosis of retinal cells induced by glutamic acid (apoptosis-like cells)” value (from here on “apoptosis of retinal cells induced”) (inhibitor 1 μM) was “inhibition of apoptosis”.

With `C[C@]12N[C@H](Cc3ccccc31)c1ccccc12` [MK 801, reference compound] the “apoptosis of retinal cells induced” value (inhibitor 10 μM) was “inhibition of apoptosis”.

In the case of `COC(=O)C[C@H](NC(=O)[C@H](C)NC(=O)[C@@H](NC(=O)OCc1ccccc1)C(C)C)C(=O)CF` [Z-VAD-FMK, reference compound] (Cbz-Val-Ala-Asp(OMe)-CH2F), the “apoptosis of retinal cells induced” value (inhibitor 20 μM) is reported as “apoptosis inhibition”.

B1: α2-macroglobulin: α2-macroglobulin activated with methylamine; hinders neuroprotection by apoE-containing lipoprotein (protein, UniProt P01023 24-1474, looked up)
Alpha-2-macroglobulin: SVSGKPQYMVLVPSLLHTETTEKGCVLLSYLNETVTVSASLESVRGNRSLFTDLEAENDVLHCVAFAVPKSSSNEEVMFLTVQVKGPTQEFKKRTTVMVKNEDSLVFVQTDKSIYKPGQTVKFRVVSMDENFHPLNELIPLVYIQDPKGNRIAQWQSFQLEGGLKQFSFPLSSEPFQGSYKVVVQKKSGGRTEHPFTVEEFVLPKFEVQVTVPKIITILEEEMNVSVCGLYTYGKPVPGHVTVSICRKYSDASDCHGEDSQAFCEKFSGQLNSHGCFYQQVKTKVFQLKRKEYEMKLHTEAQIQEEGTVVELTGRQSSEITRTITKLSFVKVDSHFRQGIPFFGQVRLVDGKGVPIPNKVIFIRGNEANYYSNATTDEHGLVQFSINTTNVMGTSLTVRVNYKDRSPCYGYQWVSEEHEEAHHTAYLVFSPSKSFVHLEPMSHELPCGHTQTVQAHYILNGGTLLGLKKLSFYYLIMAKGGIVRTGTHGLLVKQEDMKGHFSISIPVKSDIAPVARLLIYAVLPTGDVIGDSAKYDVENCLANKVDLSFSPSQSLPASHAHLRVTAAPQSVCALRAVDQSVLLMKPDAELSASSVYNLLPEKDLTGFPGPLNDQDNEDCINRHNVYINGITYTPVSSTNEKDMYSFLEDMGLKAFTNSKIRKPKMCPQLQQYEMHGPEGLRVGFYESDVMGRGHARLVHVEEPHTETVRKYFPETWIWDLVVVNSAGVAEVGVTVPDTITEWKAGAFCLSEDAGLGISSTASLRAFQPFFVELTMPYSVIRGEAFTLKATVLNYLPKCIRVSVQLEASPAFLAVPVEKEQAPHCICANGRQTVSWAVTPKSLGNVNFTVSAEALESQELCGTEVPSVPEHGRKDTVIKPLLVEPEGLEKETTFNSLLCPSGGEVSEELSLKLPPNVVEESARASVSVLGDILGSAMQNTQNLLQMPYGCGEQNMVLFAPNIYVLDYLNETQQLTPEIKSKAIGYLNTGYQRQLNYKHYDGSYSTFGERYGRNQGNTWLTAFVLKTFAQARAYIFIDEAHITQALIWLSQRQKDNGCFRSSGSLLNNAIKGGVEDEVTLSAYITIALLEIPLTVTHPVVRNALFCLESAWKTAQEGDHGSHVYTKALLAYAFALAGNQDKRKEVLKSLNEEAVKKDNSVHWERPQKPKAPVGHFYEPQAPSAEVEMTSYVLLAYLTAQPAPTSEDLTSATNIVKWITKQQNAQGGFSSTQDTVVALHALSKYGAATFTRTGKAAQVTIQSSGTFSSKFQVDNNNRLLLQQVSLPELPGEYSMKVTGEGCVYLQTSLKYNILPEKEEFPFALGVQTLPQTCDEPKAHTSFQISLSVSYTGSRSASNMAIVDVKMVSGFIPLKPTVKMLERSNHVSRTEVSSNHVLIYLDKVSNQTLSLFFTVLQDVPVRDLKPAIVKVYDYYETDEFAIAEYNAPCSKDLGNA
In the case of B1, the “effect on the neuroprotective effects of the lipoprotein containing apoE” value (Glu+100 ng protein/mL E-LP in the presence of a2M) is reported as “hinders the neuroprotective effects”.

From US20140228299A1, “PROPHYLACTIC AND THERAPEUTIC AGENT FOR NEUROLOGICAL DISEASES USING LIPOPROTEINS AND PROPHYLACTIC AND THERAPEUTIC METHOD FOR NEUROLOGICAL DISEASES” (National University Corporation Tokyo Medical and Dental …, priority 2011, published 2014)
